In US20260191196A1, “COMPOSITIONS AND METHODS FOR IMPROVING SOIL MICROBIAL POPULATIONS” (SYNGENTA CROP PROTECTION AG, priority 2022, published 2026):

Columns and labels:
soil bacterial community = assay: Plant associated soil microbiome: bacterial community by 16S rRNA gene amplicon sequencing; assay type: in vivo, tomato plants
Method: (§1) To detect microbial community modifications in the soil microbiome associated with the cyclobutrifluram treatment against root knot nematodes, PCR amplification and successive high-throughput sequencing of bacterial and fungal taxonomical marker genes (the small-subunit ribosomal RNA gene (16S) and the ribosomal internal transcribed spacers (ITS) respectively) were performed on plant-associated soil samples.
Bacterial ASVs were detected by 16SrRNA gene amplicon sequencing with taxonomy assignment at ASV level. The relative abundance in Control and Cyclobutrifluram treated samples and, when statistically significative (Deseq2, p=0.1), the relative abundance variation is reported in Table 1a, reporting bacterial ASVs detected by 16S rRNA gene amplicon sequencing with taxonomy assignment at ASV level. Here is reported the relative abundance in Control and Cyclobutrifluram treated samples and, when statistically significative (Deseq2, p=0.1), the relative abundance variation. Shown are the bacteria with an abundance of above 0.01%.

[1] = tested on: beneficial bacterial species; assay: Potato field trial: beneficial bacteria in soil (16S sequencing, differential abundance); assay type: in vivo, potato (Solanum tuberculosum L.)
Method: (§2) In this experiment, assuming that biodiversity can be measured by the taxonomic richness and abundance of each taxon, the differences between treatments are determined and their effect on populations and beneficial species over time is verified. This leads to testing two hypotheses. Firstly, there is an impact of cyclobutrifluram applications on microbial diversity. Secondly, the use of cyclobutrifluram improves beneficial microbial diversity over time. These hypotheses were tested in two potato farms in the USA.
(§3) The experiment was carried out in two potato (Solanum tuberculosum L.) fields located in two test locations in Louisiana, USA, described as locations A and B in Table 2. In each experimental field, three products were tested in an area of 10 m^2 (Table 3) and three replicates per product were established by complete block randomized. To evaluate the effects on the microbiome a “Check” plot (untreated) was established. In addition, fluopyram was employed as a comparative example. Fluopyram is a widely used fungicide and nematicide, and represents the industry standard herein.
(§4) To analyse the microbial biodiversity, three soil samples were taken per treatment and each sample consisted of soil collected from three different points within the plots. In this way, the effect of soil variability was minimized, since there were nine samples per treatment. […]
as §1, with “As set out above, to” for “To”, “treatment,” for “treatment against root knot nematodes,”, “samples. An exploratory data analysis was conducted to describe the microbial biodiversity and the behaviour of the percentage of the abundance of species under the evaluated factors. […]” for “samples.”

[2] = tested on: Trichoderma brevicompactum; assay: Potato field trial: beneficial fungi in soil (ITS sequencing, differential abundance); assay type: in vivo, potato (Solanum tuberculosum L.); conditions: location B; 200 and 250 gai/ha
Method: as §2
The experiment was carried out in two potato (Solanum tuberculosum L.) fields located in two test locations in Louisiana, USA, described as locations A and B in Table 2. […]
as §1, with “As set out above, to” for “To”, “treatment,” for “treatment against root knot nematodes,”, “samples. An exploratory data analysis was conducted to describe the microbial biodiversity and the behaviour of the percentage of the abundance of species under the evaluated factors. […]” for “samples.”

[3] = tested on: arbuscular mycorrhizae fungi; assay: Mycorrhization in soybean roots after seed treatment; assay type: in vivo
Method: Soybeans of variety Toliman were treated with 0.15 mg ai/seed of cyclobutrifluram and analogues, and planted in 1.5 L pots of 0-3 mm sieved soil. The seeds were inoculated with Bradyrhizobium japonicum using a commercially available product for soybeans.
In a first series, for each active ingredient tested, 15 replicate pots were sowed. In each pot, 3 seeds were sowed. After germination, 2 seedling was removed from each pot to a final number of 1 plant per pot. Each pot was inoculated with a small amount of a mycorrhizal inoculant (Blend A, commercially available from Symbiom, Czech Republic). The plants were grown in a greenhouse for 81 days under the following conditions: Humidity at 45-64%, Temperature of 22° C. to 24° C., in a 16/8 hour day/night cycle. In a further test series, Soybeans seeds treated as outlined above were then planted in 1 Lpots of 0-3 mm sieved soil. For each active ingredient, 8 replicate pots were sowed, whereby in each pot, 3 seeds were sowed. After germination, 2 seedlings were removed from each pot to a final number of 1 plant per pot.
The plants were then grown in a growth chamber for 42 days with the following conditions: Temperature of 20° C. and with a 12/12 hour day/night.
After harvest, the percent mycorrhization was quantified using the methods of McGonigle et al. (T. P. McGONIGLE, M. H. MILLER and D. G. EVANS et al., “A new method which gives an objective measure of colonization of roots by vesicular-arbuscular mycorrhizal fungi”. New Phytol. Vol. 115 (3): 495-501.).

[4] = tested on: bacteria (16S) and fungi (ITS) communities; assay: Potato field trial: soil microbiome community and biodiversity; assay type: in vivo, potato (Solanum tuberculosum L.); conditions: locations A and B, T0-T3
Method: as §2, §3, §4
as §1, with “As set out above, to” for “To”, “treatment,” for “treatment against root knot nematodes,”, “samples. An exploratory data analysis was conducted to describe the microbial biodiversity and the behaviour of the percentage of the abundance of species under the evaluated factors. […]” for “samples.”

[5] = Cyclobutrifluram treated plant-associated soil

O=C(N[C@@H]1CC[C@@H]1c1ccc(Cl)cc1Cl)c1cccnc1C(F)(F)F (racemic) [Cyclobutrifluram, cyclobutrifluram]
relative abundance variation vs Control, Acidobacteria-6 (ASV, Class) (soil bacterial community; 1st Acidobacteria-6 ASV (r9), Deseq2, p=0.1): +0.050% | relative abundance variation vs Control, Acidobacteria-6 (ASV, Class) (soil bacterial community; 2nd Acidobacteria-6 ASV (r16), Deseq2, p=0.1): +0.051% | relative abundance variation vs Control, Acidobacteria-6 (ASV, Class) (soil bacterial community; 3rd Acidobacteria-6 ASV (r18), Deseq2, p=0.1): +0.027% | relative abundance variation vs Control, Acidobacteria-6 (ASV, Class) (soil bacterial community; 4th Acidobacteria-6 ASV (r19), Deseq2, p=0.1): +0.028% | relative abundance variation vs Control, Acidobacteria-6 (ASV, Class) (soil bacterial community; 5th Acidobacteria-6 ASV (r22), Deseq2, p=0.1): +0.071% | relative abundance variation vs Control, Acidobacteria-6 (ASV, Class) (soil bacterial community; 6th Acidobacteria-6 ASV (r24), Deseq2, p=0.1): +0.030% | modifications in the bacterial diversity (soil bacterial community; 16S rRNA gene amplicon sequencing): no modifications | Relative abundance, Gaiella (ASV, Genus) (soil bacterial community; [5]): 0.065% | Relative abundance, Gemmatimonadetes (ASV, Class) (soil bacterial community; [5]): 0.071% | Relative abundance, Microlunatus (ASV, Genus) (soil bacterial community; [5]): 0.032% | Relative abundance, Myxococcales (ASV, Order) (soil bacterial community; [5]): 0.033% | Relative abundance, PK29 (ASV, Order) (soil bacterial community; [5]): 0.021% | Relative abundance, Planctomyces (ASV, Genus) (soil bacterial community; [5]): 0.016% | Relative abundance, Rhizobiales (ASV, Order) (soil bacterial community; [5]): 0.025% | Relative abundance, Streptosporangiaceae (ASV, Family) (soil bacterial community; [5]): 0.020% | Relative abundance, Acidobacteria-6 (ASV, Class) (soil bacterial community; Cyclobutrifluram treated plant-associated soil, 1st Acidobacteria-6 ASV (r9)): 0.050% | Relative abundance, Acidobacteria-6 (ASV, Class) (soil bacterial community; Cyclobutrifluram treated plant-associated soil, 2nd Acidobacteria-6 ASV (r16)): 0.051% | Relative abundance, Acidobacteria-6 (ASV, Class) (soil bacterial community; Cyclobutrifluram treated plant-associated soil, 3rd Acidobacteria-6 ASV (r18)): 0.027% | Relative abundance, Acidobacteria-6 (ASV, Class) (soil bacterial community; Cyclobutrifluram treated plant-associated soil, 4th Acidobacteria-6 ASV (r19)): 0.028% | Relative abundance, Acidobacteria-6 (ASV, Class) (soil bacterial community; Cyclobutrifluram treated plant-associated soil, 5th Acidobacteria-6 ASV (r22)): 0.084% | Relative abundance, Acidobacteria-6 (ASV, Class) (soil bacterial community; Cyclobutrifluram treated plant-associated soil, 6th Acidobacteria-6 ASV (r24)): 0.030% | relative abundance variation vs Control, Gaiella (ASV, Genus) (soil bacterial community; Deseq2, p=0.1): +0.065% | relative abundance variation vs Control, Gemmatimonadetes (ASV, Class) (soil bacterial community; Deseq2, p=0.1): +0.071% | relative abundance variation vs Control, Microlunatus (ASV, Genus) (soil bacterial community; Deseq2, p=0.1): +0.032% | relative abundance variation vs Control, Myxococcales (ASV, Order) (soil bacterial community; Deseq2, p=0.1): +0.033% | relative abundance variation vs Control, PK29 (ASV, Order) (soil bacterial community; Deseq2, p=0.1): +0.021% | relative abundance variation vs Control, Planctomyces (ASV, Genus) (soil bacterial community; Deseq2, p=0.1): +0.016% | relative abundance variation vs Control, Rhizobiales (ASV, Order) (soil bacterial community; Deseq2, p=0.1): +0.025% | relative abundance variation vs Control, Streptosporangiaceae (ASV, Family) (soil bacterial community; Deseq2, p=0.1): +0.020% | modifications in the bacterial community at genus level (soil bacterial community; differential abundance analysis, Cyclobutrifluram treatment): no significant modifications | relative abundance of the 14 ASVs found to be significantly changing (soil bacterial community; following cyclobutrifluram treatment): < 0.1% | abundance of Bacillus halmapalus and B. cereus ([1]; T2 (60 days after treatment)): increased significantly | Sphingomonas species (S. sediminicola, S. japsi and S. daechungensis) abundance ([1]; location A in T3 (120 days after application), location B in T2 (60 days after application)): tend to increase significantly | Pseudomonas putida abundance ([1]; location A, 200 and 250 gai/ha): significant increase | Trichoderma brevicompactum relative abundance [2]: significant enhancement | response vs control in vivo at 0.15 mg/seed ([3]; Glycine max, soybean variety Toliman, seed treatment 0.15 mg ai/seed, mycorrhizal inoculant Blend A, relative to control, read-out: [%] arbuscular mycorrhizae fungi colonization vs. control.): 115% | level of mycorrhizal colonization in soybean roots (in words) ([3]; compared to control): higher colonization | changes into the soil microbiome community [4]: did not induce negative changes
